Experiments:
[1] = target: Kelch domain of human KEAP1 (321-624 aa) (Homo sapiens (Human), UniProt Q14145); assay: KEAP1 KELCH ThermoFluor binding assay; details: KEAP Kelch […], 1,8-ANS, pH 7.0, average of results obtained, read-out: Tf Kd;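 further: Ligand-induced melting temperature shift of E. coli-expressed KEAP1 Kelch protein, Kd estimated from concentration-response curves of ΔTm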
[2] = test system: Glo-Response ARE-luc2P HEK293 cell line; assay: ARE luciferase reporter cell-based assay; details: average of results obtained;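 further: luciferase signal tracks Nrf2 activation of the ARE once compounds disrupt KEAP1-Nrf2 binding, read with One-Glo reagent, DMSO serving as low control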

Kelch domain of human KEAP1 (321-624 aa), sequence (Q14145 321-624): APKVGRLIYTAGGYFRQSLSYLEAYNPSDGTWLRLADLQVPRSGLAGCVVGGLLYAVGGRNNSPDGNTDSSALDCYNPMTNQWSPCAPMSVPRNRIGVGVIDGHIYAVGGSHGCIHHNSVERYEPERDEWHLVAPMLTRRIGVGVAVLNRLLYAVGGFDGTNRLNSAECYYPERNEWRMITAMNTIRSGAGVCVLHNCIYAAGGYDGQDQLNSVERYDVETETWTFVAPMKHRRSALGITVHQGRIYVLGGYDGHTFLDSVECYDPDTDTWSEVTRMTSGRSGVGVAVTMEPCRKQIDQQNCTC

In the case of Cc1cnc2c(c1)S(=O)(=O)N(Cc1cc([C@H](c3ccc4c(nnn4C4CC4)c3C)C(C)(C)C(=O)O)cnc1C)CC1(CC1)O2 (single isomer, unassigned) [Example 396, (*R)-3-(1-Cyclopropyl-4-methyl-1H-benzo[d][1,2,3]triazol-5-yl)-2,2-dimethyl-3-(6-methyl-5-((8′-methyl-1′,1′-dioxidospiro[cyclopropane-1,4′-pyrido[2,3-b][1,4,5]oxathiazepin]-2′(3′H)-yl)methyl)pyridin-3-yl)propanoic Acid], the Kd [1] is reported as 21800 nM and the EC50 ([2]; Homo sapiens, HEK293, 24 h) is reported as 4900 nM.

For Cc1ccc([C@H](CC(=O)O)c2ccn3c(C(F)(F)F)nnc3c2C)cc1CN1CC2(CC2)Oc2nc(NCCN3CCCCC3)ccc2S1(=O)=O (single isomer, unassigned) [Example 112, (*S)-3-(3-((1′,1′-Dioxido-7′-((2-(piperidin-1-yl)ethyl)amino)spiro[cyclopropane-1,4′-pyrido[2,3-b][1,4,5]oxathiazepin]-2′(3′H)-yl)methyl)-4-methylphenyl)-3-(8-methyl-3-(trifluoromethyl)-[1,2,4[triazolo[4,3-a]pyridine-7-yl)propanoic Acid], the Kd [1] was under 1 nM and the EC50 ([2]; Homo sapiens, HEK293, 24 h) was 1310 nM.

Cc1ccc(C(CC(=O)O)c2ccn3c(C(F)(F)F)nnc3c2C)cc1CN1C[C@H]2CN(C)CCN2c2ncccc2S1(=O)=O (mixture of isomers) [Example 180, (R/S)-3-(4-Methyl-3-(((*R)-9-methyl-5,5-dioxido-7,7a,8,9,10,11-hexahydro-6H-pyrazino[2,1-d]pyrido[2,3-f][1,2,5]thiadiazepin-6-yl)methyl)phenyl)-3-(8-methyl-3-(trifluoromethyl)-[1,2,4]triazolo[4,3-a]pyridin-7-yl)propanoic Acid] gave a Kd [1] of 190 nM and an EC50 ([2]; Homo sapiens, HEK293, 24 h) of 2880 nM.

Cc1ccc([C@H](CC(=O)O)c2ccn3c(C(F)(F)F)nnc3c2C)cc1CN1C[C@@H]2CN(C)CCN2c2ncccc2S1(=O)=O (single isomer, unassigned) [Example 178, (*S)-3-(4-Methyl-3-(((S)-9-methyl-5,5-dioxido-7,7a,8,9,10,11-hexahydro-6H-pyrazino[2,1-d]pyrido[2,3-f][1,2,5]thiadiazepin-6-yl)methyl)phenyl)-3-(8-methyl-3-(trifluoromethyl)-[1,2,4]triazolo[4,3-a]pyridin-7-yl)propanoic Acid] was tested, and the Kd [1] was 30 nM and the EC50 ([2]; Homo sapiens, HEK293, 24 h) was 440 nM.

For CCc1nnc2c(C)c([C@@H](CC(=O)O)c3ccc(C)c(CN4C[C@H]5CCCN5c5ncccc5S4(=O)=O)c3)ccn12 (single isomer, unassigned) [Example 282, (*S)-3-(3-(((R)-5,5-dioxido-7a,8,9,10-tetrahydropyrido[2,3-f]pyrrolo[2,1-d][1,2,5]thiadiazepin-6(7H)-yl)methyl)-4-methylphenyl)-3-(3-ethyl-8-methyl-[1,2,4]triazolo[4,3-a]pyridin-7-yl)propanoic Acid], the Kd [1] was under 1 nM and the EC50 ([2]; Homo sapiens, HEK293, 24 h) was 293 nM.

For Cc1ccc([C@H](CC(=O)O)c2ccn3c(C(F)(F)F)nnc3c2C)cc1CN1CC2(CC2)Oc2ncc(C#N)cc2S1(=O)=O (single isomer, unassigned) [Example 200, (*S)-3-(3-((8′-Cyano-1′,1′-dioxidospiro[cyclopropane-1,4′-pyrido[2,3-b][1,4,5]oxathiazepin]-2′(3′H)-yl)methyl)-4-methylphenyl)-3-(8-methyl-3-(trifluoromethyl)-[1,2,4]triazolo[4,3-a]pyridin-7-yl)propanoic Acid], the Kd [1] was under 1 nM and the EC50 ([2]; Homo sapiens, HEK293, 24 h) was 61 nM.

Compound Cc1cnc([C@@H](c2ccn3c(C(F)(F)F)nnc3c2C)C(C)(C)C(=O)O)cc1CN1CC2(CC2)Oc2nc(OCCN3CCCC3)c(C)cc2S1(=O)=O (single isomer, unassigned) [Example 590, (*S)-2,2-Dimethyl-3-(8-methyl-3-(trifluoromethyl)-[1,2,4]triazolo[4,3-a]pyridin-7-yl)-3-(5-methyl-4-((8′-methyl-1′,1′-dioxido-7′-(2-(pyrrolidin-1-yl)ethoxy)spiro[cyclopropane-1,4′-pyrido[2,3-b][1,4,5]oxathiazepin]-2′(3′H)-yl)methyl)pyridin-2-yl)propanoic Acid] has a Kd [1] of under 1 nM and an EC50 ([2]; Homo sapiens, HEK293, 24 h) of 33.2 nM.

With Cc1ccc([C@@H](CC(=O)O)c2ccn3c(C(F)(F)F)nnc3c2C)cc1CN1C[C@H]2CCCN2c2ccccc2S1(=O)=O (single isomer, unassigned) [Example 267, (*R)-3-(3-(((R)-5,5-Dioxido-7a,8,9,10-tetrahydrobenzo[f]pyrrolo[2,1-d][1,2,5]thiadiazepin-6(7H)-yl)methyl)-4-methylphenyl)-3-(8-methyl-3-(trifluoromethyl)-[1,2,4]triazolo[4,3-a]pyridin-7-yl)propanoic Acid] the Kd [1] was under 1 nM and the EC50 ([2]; Homo sapiens, HEK293, 24 h) was 90.4 nM.

In the case of Cc1ccc([C@H](c2ccn3c(C(F)(F)F)nnc3c2C)C(C)(C)C(=O)O)cc1CN1C[C@]2(CCOC2)Oc2ncccc2S1(=O)=O (single isomer, unassigned) [Example 385, (*R)-3-(3-(((*S)-1′,1′-Dioxido-4,5-dihydro-2H-spiro[furan-3,4′-pyrido[2,3-b][1,4,5]oxathiazepin]-2′(3′H)-yl)methyl)-4-methylphenyl)-2,2-dimethyl-3-(8-methyl-3-(trifluoromethyl)-[1,2,4]triazolo[4,3-a]pyridin-7-yl)propanoic Acid], the Kd [1] is reported as under 1 nM and the EC50 ([2]; Homo sapiens, HEK293, 24 h) is reported as 1.8 nM.

CCn1nnc2c(C)c([C@@H](c3ccc(C)c(CN4CC5(CCOCC5)Oc5ncccc5S4(=O)=O)n3)C(C)(C)C(=O)O)ccc21 (single isomer, unassigned) [Example 556, (*R)-3-(6-((1′,1′-Dioxido-2,3,5,6-tetrahydrospiro[pyran-4,4′-pyrido[2,3-b][1,4,5]oxathiazepin]-2′(3′H)-yl)methyl)-5-methylpyridin-2-yl)-3-(1-ethyl-4-methyl-1H-benzo[d][1,2,3]triazol-5-yl)-2,2-dimethylpropanoic Acid] was tested, and the Kd [1] was 4940 nM and the EC50 ([2]; Homo sapiens, HEK293, 24 h) was 1750 nM.

In the case of Cc1ccc([C@@H](c2ccn3c(C(F)(F)F)nnc3c2C)C(C)(C)C(=O)O)cc1CN1C[C@H]2CCCCN2c2ncc(C#N)cc2S1(=O)=O (single isomer, unassigned) [Example 422, (*S)-3-(3-(((*R)-3-cyano-5,5-dioxido-7,7a,8,9,10,11-hexahydro-6H-dipyrido[2,1-d:2′,3′-f][1,2,5]thiadiazepin-6-yl)methyl)-4-methylphenyl)-2,2-dimethyl-3-(8-methyl-3-(trifluoromethyl)-[1,2,4]triazolo[4,3-a]pyridin-7-yl)propanoic Acid], the Kd [1] is reported as under 1 nM and the EC50 ([2]; Homo sapiens, HEK293, 24 h) is reported as 1.3 nM.

Cc1ccc([C@H](CC(=O)O)c2ccn3c(C(F)F)nnc3c2C)cc1CN1CC2(CC2)Oc2ncccc2S1(=O)=O (single isomer, unassigned) [Example 473, (*S)-3-(3-(Difluoromethyl)-8-methyl-[1,2,4]triazolo[4,3-a]pyridin-7-yl)-3-(3-((1′,1′-dioxidospiro[cyclopropane-1,4′-pyrido[2,3-b][1,4,5]oxathiazepin]-2′(3′H)-yl)methyl)-4-methylphenyl)propanoic Acid] was tested, and the Kd [1] was under 1 nM and the EC50 ([2]; Homo sapiens, HEK293, 24 h) was 104 nM.

Compound Cc1cc2cc([C@H](CC(=O)O)c3ccc(C)c(CN4C[C@@H]5CCCN5c5ncccc5S4(=O)=O)c3)n(C)c2nn1 (single isomer, unassigned) [Example 439, (*R)-3-(3,7-Dimethyl-7H-pyrrolo[2,3-c]pyridazin-6-yl)-3-(3-(((S)-5,5-dioxido-7a,8,9,10-tetrahydropyrido[2,3-f]pyrrolo[2,1-d][1,2,5]thiadiazepin-6(7H)-yl)methyl)-4-methylphenyl)propanoic Acid] has a Kd [1] of 1.26 nM and an EC50 ([2]; Homo sapiens, HEK293, 24 h) of 2440 nM.

Cc1ccc(C(c2ccn3c(C(F)F)nnc3c2C)C(C)(C)C(=O)O)cc1CN1CC2(CCOCC2)Oc2ncccc2S1(=O)=O (racemic) [Example 52, (R/S)-3-(3-(Difluoromethyl)-8-methyl-[1,2,4]triazolo[4,3-a]pyridin-7-yl)-3-(3-((1′,1′-dioxido-2,3,5,6-tetrahydrospiro[pyran-4,4′-pyrido[2,3-b][1,4,5]oxathiazepin]-2′(3′H)-yl)methyl)-4-methylphenyl)-2,2-dimethylpropanoic Acid] was tested, and the Kd [1] was under 1 nM and the EC50 ([2]; Homo sapiens, HEK293, 24 h) was 8.2 nM.

Work on Cc1ccc([C@@H](c2ccn3c(C(F)F)nnc3c2C)C(C)(C)C(=O)O)cc1CN1CC2(COC2)Oc2ncccc2S1(=O)=O (single isomer, unassigned) [Example 616, (*S)-3-(3-(difluoromethyl)-8-methyl-[1,2,4]triazolo[4,3-a]pyridine-7-yl)-3-(3-((1′,1′-dioxidospiro[oxetane-3,4′-pyrido[2,3-b][1,4,5]oxathiazepin]-2′(3′H)-yl)methyl)-4-methylphenyl)-2,2-dimethylpropanoic Acid] yielded a Kd [1] of under 1 nM and an EC50 ([2]; Homo sapiens, HEK293, 24 h) of 2.14 nM.

With Cc1ccc([C@H](CC(=O)O)c2cc(OC(F)F)c3c(c2)nnn3C)cc1CN1C[C@H]2CCCN2c2ncccc2S1(=O)=O (relative stereo) [Example 247, (*S)-3-(7-(Difluoromethoxy)-1-methyl-1H-benzo[d][1,2,3]triazol-5-yl)-3-(3-(((R)-5,5-dioxido-7a,8,9,10-tetrahydropyrido[2,3-f]pyrrolo[2,1-d][1,2,5]thiadiazepin-6(7H)-yl)methyl)-4-methylphenyl)propanoic Acid] the Kd [1] was under 1 nM and the EC50 ([2]; 24 hours) was 225 nM.

Cc1ccc([C@@H](CC(=O)O)c2ccc3c(nnn3CC3CC3)c2C)cc1CN1C[C@@]2(C)CCCN2c2ncccc2S1(=O)=O (single isomer, unassigned) [Example 81, (*R)-3-(1-(Cyclopropylmethyl)-4-methyl-1H-benzo[d][1,2,3]triazol-5-yl)-3-(4-methyl-3-(((*R)-7a-methyl-5,5-dioxido-7a,8,9,10-tetrahydropyrido[2,3-f]pyrrolo[2,1-d][1,2,5]thiadiazepin-6(7H)-yl)methyl)phenyl)propanoic Acid] gave a Kd [1] of 5.5 nM and an EC50 ([2]; Homo sapiens, HEK293, 24 h) of 176 nM.
